Test results as given in paper PMC10850145, “Hormonal steroids induce multidrug resistance and stress response genes in Neisseria gonorrhoeae by binding to MtrR” (Nature Communications, 2024).
“And” between values parts separate entries of the source, which are not always exact repeats. Equal values may be shown once. Read-outs that look alike come from different tables or passages of the source.

Test system: mtrC-lacZ expression
Assay type: cell-based, Neisseria gonorrhoeae
Details: for mtrC-lacZ β-galactosidase activity, Mean: left block of sheet (mtrCDE); for β-galactosidase activity, Mean: second (right) untitled block of sheet Figure S10 (mtrC)
[1] = strain ΔmtrR + mtrR R176E, 6.25 µM hormone
[2] = strain ΔmtrR + mtrR R176E, 12.5 µM hormone
[3] = strain ΔmtrR + mtrR R176E, 25 µM hormone
[4] = strain ΔmtrR + mtrR R176E, 50 µM hormone
[5] = strain ΔmtrR + mtrR WT, 6.25 µM hormone
[6] = strain ΔmtrR + mtrR WT, 12.5 µM hormone
[7] = strain ΔmtrR + mtrR WT, 25 µM hormone
[8] = strain ΔmtrR + mtrR WT, 50 µM hormone

SMILES: CC(=O)[C@H]1CC[C@H]2[C@@H]3CCC4=CC(=O)CC[C@]4(C)[C@H]3CC[C@]12C [Progesterone, progesterone]
- β-galactosidase activity, mtrC-lacZ, Mean (strain WT (FA19/pLES94-mtrC), hormone 6.25 µM): 97 Miller units
- β-galactosidase activity, mtrC-lacZ, Mean (strain WT (FA19/pLES94-mtrC), hormone 12.5 µM): 126 Miller units
- β-galactosidase activity, mtrC-lacZ, Mean (strain WT (FA19/pLES94-mtrC), hormone 25 µM): 146 Miller units
- β-galactosidase activity, mtrC-lacZ, Mean (strain WT (FA19/pLES94-mtrC), hormone 50 µM): 139 Miller units
- mtrC-lacZ β-galactosidase activity, Mean (strain WT, 6.25 µM hormone): 108 Miller units
- β-galactosidase activity, Mean (strain WT, 6.25 µM hormone): 36 Miller units
- mtrC-lacZ β-galactosidase activity, Mean (strain WT, 12.5 µM hormone): 144 Miller units
- β-galactosidase activity, Mean (strain WT, 12.5 µM hormone): 47 Miller units
- mtrC-lacZ β-galactosidase activity, Mean (strain WT, 25 µM hormone): 194 Miller units
- β-galactosidase activity, Mean (strain WT, 25 µM hormone): 70 Miller units
- mtrC-lacZ β-galactosidase activity, Mean (strain WT, 50 µM hormone): 222 Miller units
- β-galactosidase activity, Mean (strain WT, 50 µM hormone): 97 Miller units
- activation of mtrC (strain producing MtrR R176E): almost no activation
- β-galactosidase activity, mtrC-lacZ, Mean (strain ΔmtrR (FA19 ∆mtrR/pLES94-mtrC), hormone 6.25 µM): 210 Miller units
- β-galactosidase activity, mtrC-lacZ, Mean (strain ΔmtrR (FA19 ∆mtrR/pLES94-mtrC), hormone 12.5 µM): 191 Miller units
- β-galactosidase activity, mtrC-lacZ, Mean (strain ΔmtrR (FA19 ∆mtrR/pLES94-mtrC), hormone 25 µM): 234 Miller units
- β-galactosidase activity, mtrC-lacZ, Mean (strain ΔmtrR (FA19 ∆mtrR/pLES94-mtrC), hormone 50 µM): 188 Miller units
- β-galactosidase activity, mtrC-lacZ, Mean (strain ΔmtrR + mtrR D171A (pGCC3-mtrR D171A), hormone 6.25 µM): 146 Miller units
- β-galactosidase activity, mtrC-lacZ, Mean (strain ΔmtrR + mtrR D171A (pGCC3-mtrR D171A), hormone 12.5 µM): 142 Miller units
- β-galactosidase activity, mtrC-lacZ, Mean (strain ΔmtrR + mtrR D171A (pGCC3-mtrR D171A), hormone 25 µM): 168 Miller units
- β-galactosidase activity, mtrC-lacZ, Mean (strain ΔmtrR + mtrR D171A (pGCC3-mtrR D171A), hormone 50 µM): 106 Miller units
- mtrC-lacZ β-galactosidase activity, Mean [1]: 217 Miller units
- β-galactosidase activity, Mean [1]: 91 Miller units
- mtrC-lacZ β-galactosidase activity, Mean [2]: 208 Miller units
- β-galactosidase activity, Mean [2]: 92 Miller units
- mtrC-lacZ β-galactosidase activity, Mean [3]: 226 Miller units
- β-galactosidase activity, Mean [3]: 111 Miller units
- mtrC-lacZ β-galactosidase activity, Mean [4]: 231 Miller units
- β-galactosidase activity, Mean [4]: 98 Miller units
- β-galactosidase activity, mtrC-lacZ, Mean (strain ΔmtrR + mtrR WT (pGCC3-mtrR), hormone 6.25 µM): 84 Miller units
- β-galactosidase activity, mtrC-lacZ, Mean (strain ΔmtrR + mtrR WT (pGCC3-mtrR), hormone 12.5 µM): 89 Miller units
- β-galactosidase activity, mtrC-lacZ, Mean (strain ΔmtrR + mtrR WT (pGCC3-mtrR), hormone 25 µM): 113 Miller units
- β-galactosidase activity, mtrC-lacZ, Mean (strain ΔmtrR + mtrR WT (pGCC3-mtrR), hormone 50 µM): 129 Miller units
- mtrC-lacZ β-galactosidase activity, Mean [5]: 95 Miller units
- β-galactosidase activity, Mean [5]: 19 Miller units
- mtrC-lacZ β-galactosidase activity, Mean [6]: 111 Miller units
- β-galactosidase activity, Mean [6]: 24 Miller units
- mtrC-lacZ β-galactosidase activity, Mean [7]: 124 Miller units
- β-galactosidase activity, Mean [7]: 34 Miller units
- mtrC-lacZ β-galactosidase activity, Mean [8]: 160 Miller units
- β-galactosidase activity, Mean [8]: 45 Miller units
- mtrC-lacZ β-galactosidase activity, Mean (strain ΔmtrR, 6.25 µM hormone): 311 Miller units
- β-galactosidase activity, Mean (strain ΔmtrR, 6.25 µM hormone): 126 Miller units
- mtrC-lacZ β-galactosidase activity, Mean (strain ΔmtrR, 12.5 µM hormone): 285 Miller units
- β-galactosidase activity, Mean (strain ΔmtrR, 12.5 µM hormone): 129 Miller units
- mtrC-lacZ β-galactosidase activity, Mean (strain ΔmtrR, 25 µM hormone): 297 Miller units
- β-galactosidase activity, Mean (strain ΔmtrR, 25 µM hormone): 134 Miller units
- mtrC-lacZ β-galactosidase activity, Mean (strain ΔmtrR, 50 µM hormone): 286 Miller units
- β-galactosidase activity, Mean (strain ΔmtrR, 50 µM hormone): 97 Miller units
- β-galactosidase activity, Miller units (single replicate) (ΔmtrR + mtrR WT in trans, 6.25 µM, first data set (c15-c36)): 95 Miller units
- β-galactosidase activity, Miller units (single replicate) (ΔmtrR + mtrR WT in trans, 6.25 µM, second data set (c53-c74)): 19 Miller units and 16 Miller units and 17 Miller units and 23 Miller units
- β-galactosidase activity, Miller units (single replicate) (ΔmtrR + mtrR WT in trans, 12.5 µM, first data set (c15-c36)): 114 Miller units
- β-galactosidase activity, Miller units (single replicate) (ΔmtrR + mtrR WT in trans, 12.5 µM, second data set (c53-c74)): 22 Miller units and 26 Miller units and 24 Miller units
- β-galactosidase activity, Miller units (single replicate) (ΔmtrR + mtrR WT in trans, 25 µM, first data set (c15-c36)): 128 Miller units
- β-galactosidase activity, Miller units (single replicate) (ΔmtrR + mtrR WT in trans, 25 µM, second data set (c53-c74)): 39 Miller units and 34 Miller units and 32 Miller units and 31 Miller units
- β-galactosidase activity, Miller units (single replicate) (ΔmtrR + mtrR WT in trans, 50 µM, first data set (c15-c36)): 194 Miller units
- β-galactosidase activity, Miller units (single replicate) (ΔmtrR + mtrR WT in trans, 50 µM, second data set (c53-c74)): 54 Miller units and 51 Miller units and 38 Miller units and 39 Miller units
- β-galactosidase activity, Miller units (single replicate) (ΔmtrR, 6.25 µM, first data set (c15-c36)): 324 Miller units and 312 Miller units and 315 Miller units and 294 Miller units
- β-galactosidase activity, Miller units (single replicate) (ΔmtrR, 6.25 µM, second data set (c53-c74)): 161 Miller units and 130 Miller units and 118 Miller units and 97 Miller units
- β-galactosidase activity, Miller units (single replicate) (ΔmtrR, 12.5 µM, first data set (c15-c36)): 289 Miller units and 316 Miller units and 292 Miller units and 245 Miller units
- β-galactosidase activity, Miller units (single replicate) (ΔmtrR, 12.5 µM, second data set (c53-c74)): 170 Miller units and 117 Miller units and 123 Miller units and 105 Miller units
- β-galactosidase activity, Miller units (single replicate) (ΔmtrR, 25 µM, first data set (c15-c36)): 397 Miller units and 288 Miller units and 270 Miller units and 234 Miller units
- β-galactosidase activity, Miller units (single replicate) (ΔmtrR, 25 µM, second data set (c53-c74)): 195 Miller units and 111 Miller units and 136 Miller units and 96 Miller units
- β-galactosidase activity, Miller units (single replicate) (ΔmtrR, 50 µM, first data set (c15-c36)): 318 Miller units and 329 Miller units and 263 Miller units and 234 Miller units
- β-galactosidase activity, Miller units (single replicate) (ΔmtrR, 50 µM, second data set (c53-c74)): 134 Miller units and 92 Miller units and 84 Miller units and 79 Miller units
